Source: patent US7098219B2, “Inhibitors of cellular efflux pumps of microbes” (Wockhart Limited, priority 2000, dated 2006)

What was measured:
[1] = system: E. coli 2051; test: Antibiotic diffusion assay, levofloxacin plate versus water control plate; type: cell-based, Escherichia coli; conditions: zone of inhibition in levofloxacin (15 mcg/ml) plate minus water control plate; Mueller Hinton Agar, 35° C. 20 hours
Protocol: (§1) Testing method for Inhibition of the Efflux Pumps of Pseudomonas aeruzinosa 23587, E. coli 2051, Streptococcus pneumoniae 3514 and Streptococcus pyozenus 26-00
The activity of an efflux pump inhibitor of E. coli 2051 was also assessed using an antibiotic diffusion assay. For this assay E. coli 2051 is used. E. coli 2051 is a clinical isolate containing multiple efflux pumps. E. coli 2051 are grown in tryptic soya broth for 20 hours at 35° C. Two antibiotic assay plates are prepared in Mueller Hinton Agar using above inoculum. The bacterial count in a plate is 1×10^6 cells/ml. In one of the plates, levofloxacin is incorporated at 15 mcg/ml, while in the control plate an equivalent amount of water is added. […]. The plates are incubated at 35° C. for 20 hours and the zone of inhibition was recorded in mm (table 3) . The difference in the diameter of zone of inhibition was calculated by subtracting from the zone of inhibition in the levofloxacin containing plate the diameter of the zone of inhibition in the control plate.

[2] = system: Pseudomonas aeruginosa 23587; test: as above; type: cell-based; conditions: zone of inhibition in levofloxacin (5 mcg/ml) plate minus water control plate; Mueller Hinton Agar, 35° C. 20 hours
Protocol: as §1
Antibiotic Diffusion Assay
The activity of efflux pump inhibitor was also assessed using an antibiotic diffusion assay. For this assay Pseudomonas aeruginosa 23587 is used. Pseudomonas aeruginosa 23587 is a clinical isolate containing multiple efflux pumps which can be mexAB, mexCD, mexEF but not limited to mex classification only. Pseudomonas aeruginosa are grown in tryptic soya broth for 20 hours at 35° C. Two antibiotic assay plates are prepared in Mueller Hinton Agar using above inoculum. The bacterial count in a plate is 1×10^6 cells/ml. In one of the plates, levofloxacin is incorporated at 5 mcg/ml, while in the control plate an equivalent amount of water is added. […]. The plates are incubated at 35° C. for 20 hours and the zone of inhibition was recorded in mm (table 2). The difference in the diameter of zone of inhibition was calculated by subtracting from the diameter of the zone of inhibition in the levofloxacin containing plate the diameter of the zone of inhibition in the water containing control plate. Example, if the diameter of the zone of inhibition in the levofloxacin plate is X mm and the diameter of the zone of inhibition in the control plate is Y mm, the difference Z=X−Y and is a measure of the activity of the efflux pump inhibitor.

[3] = system: Mef Efflux Pump of Streptococcus pneumoniae 3514 and Streptococcus pyogenes 26-00; test: Two plate diffusion assay for macrolide (Mef) efflux pump inhibitors, azithromycin plate versus control plate; type: cell-based; conditions: zone of inhibition in antibiotic plate (method: azithromycin 0.5 mcg/ml; footnote: levofloxacin) minus water control plate; strain not given
[4] = system: Staphylococcus aureus 1199 B NorA+; type: cell-based; conditions: combination with ciprofloxacin, broth microdilution checkerboard, 35° C. 20 hours; FIC index ≦0.5 synergistic, 0.5–2.0 additive, >2.0 antagonistic
Summary of the method: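 Broth microdilution checkerboard with ciprofloxacin against S. aureus 1199B NorA+, pump inhibitor titrated along one axis; inoculum 5×10^5 CFU/ml in Mueller Hinton broth, 35 °C for 20 hours. Growth read by visible turbidity, confirmed by plate reader; FIC index derived from inhibitor MIC in combination versus alone.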

Compound | Difference in Zone diameter Z1 (mm) [1] [mm] | Difference in Zone diameter Z1 (mm) [2] [mm] | Difference in Zone diameter Z1 (mm) [3] [mm] | FIC INDEX [4]
Cc1c(F)c(Br)cc2c1c(=O)c(C(=O)O)cn2C1CC1 [Example 2 (P. aeruginosa), 7-Bromo-1-cyclopropyl-6-fluoro-5-methyl-1l 4-dihydro-4-oxo-quinoline-3-carboxylic acid] | 9 | 1 | – | –
C[C@H]1CCc2c(N3CCC(O)CC3)c(F)cc3c(=O)c(C(=O)O)cn1c23.OCCNCCO [Example 24 (P. aeruginosa), S-(−)-9-Fluoro-6,7-dihydro-8-(4′-hydroxypiperidin-1-yl)-5-methyl-1-oxo-1H,5H-benzo[i,j]quinolizine-2-carboxylic acid, diethanolamine salt] | 11 | 4 | – | –
COc1c(N2CCC(N)C(C)(C)C2)c(F)cc2c(=O)c(C(=O)O)cn(C3CC3)c12 (stereo not drawn) [Example 6 (P. aeruginosa), 1-Cyclopropyl-6-fluoro-8-methoxy-1,4-dihydro-7-(4′-amino-3′-3′-dimethylpiperidin-1-yl)-4-oxo-quinoline-3-carboxylic acid] | 11 | 12 | – | –
S-(-9-Fluoro-6,7-dihydro-8-(4′-hydroxypiperidin-1-yl)-5-methyl-1-oxo-1H,5H-benzo[i,j]quinolizine-2-carboxylic acid, 1-hydroxyethylpyrrolidine salt [Example 23 (P. aeruginosa)] | 11 | 3 | – | –
C[C@@H]1CN(c2c(F)cc3c(=O)c(C(=O)O)cn4c3c2CC[C@@H]4C)CC[C@H]1O (relative stereo) [Example 35 (P. aeruginosa), S-(−)-9-Fluoro-6,7-dihydro-8-(trans-4′-hydroxy-3′-methylpiperidin-1-yl]-5-methyl-1H,5H-benzo[i,j]quinolizine-2-carboxylic acid] | 8 | 8 | – | –
(R)-(+)-9,8-fluoro-8-fluoro-6,7-dihydro-5-methyl-1-oxo-1H,5H-benzo[i,j]quinolizine-2-carboxylate Methoxy phe-lys-OMe [Example 32 (P. aeruginosa)] | 11 | 8 | – | –
COc1c(N2CCC(N)C(C)C2)c(F)cc2c(=O)c(C(=O)O)cn(C3CC3)c12 (stereo not drawn) [Example 3 (P. aeruginosa), 1-Cyclopropyl-6-fluoro-8-methoxy-1,4-dihydro-7-(4′-amino-3′-methylpiperidin-1-yl)-4-oxo-quinoline-3-carboxylic acid] | 10 | 7 | 26 | –
C[C@H]1CCc2c(N3CCC(O)CC3)c(F)cc3c(=O)c(C(=O)O)cn1c23 [Example 21 (P. aeruginosa), S-(−)-9-Fluoro-6,7-dihydro-8-(4′-hydroxypiperidin-1-yl)-5-methyl-1-oxo-1H,5H-benzo[i,j]quinolizine-2-carboxylic acid 0.2 hydrate] | 9 | 5 | – | –
10-Fluoro-11-[(1∝,5∝,6∝)-6-amino-3-azabicyclo[3.1.01]hex-3yl]-3,4-dihydro-4(S)-methyl-8-oxo-2H,8H-pyrido[1,2,3-ef]-1,5-benzoxazipin-7-carboxylic acid. HCl [Example 37 (P. aeruginosa)] | 5 | 2 | – | –
C[C@H]1CCc2c(N3CCC(O)CC3)c(F)cc3c(=O)c(C(=O)[O-])cn1c23.C[N+](C)(C)CCO [Example 22 (P. aeruginosa), S-(−)-9-Fluoro-6,7-dihydro-8-(4′-hydroxypiperidin-1-yl)-5-methyl-1-oxo-1H,5H-benzo[i,j]quinolizine-2-carboxylic acid, choline salt] | 9 | 3 | – | –
CC1CCc2c(N3CCC(OC(=O)[C@@H](N)CC(=O)O)CC3)c(F)cc3c(=O)c(C(=O)O)cn1c23.Cl (mixture of isomers) [Example 27 (P. aeruginosa), (RS)-(±)-9-Fluoro-6,7-dihydro-8-4′-(L-ot-aspartyloxy)piperidin-1-yl]-5-methyl-1-oxo-1H,5H-benzo[i,j]quinolizine-2-carboxylic acid hydrochloride] | – | 11 | 6 | –
(S)-(−)-Morpholinoethyl-9-fluoro-6,7-dihydro-8-(4′-hydroxypiperidin-1-yl)-5-methyl-1-oxo-1H,5H-benzo[i,j]quinolizine-2-carboxylic acid [Example 58 (NorA)] | 8 | 2 | – | 0.370
CC(C)C[C@@H](N)C(=O)OC1CCN(c2c(F)cc3c(=O)c(C(=O)O)cn4c3c2CC[C@@H]4C)CC1.Cl [Example 29 (P. aeruginosa), (S)-(−)-9-Fluoro-6,7-dihydro-8-{4′-(D-leucyloxy)piperidin-1-yl}-5-methyl-1-oxo-1H,5H-benzo[i,j]quinolizine-2-carboxylic acid hydrochloride] | 18 | 12 | – | –
CCC1CN(c2c(F)cc3c(=O)c(C(=O)O)cn4c3c2OCC4C)CCC1O (stereo not drawn) [Example 36 (P. aeruginosa), 7H-Pyrido[1,2,3-de]-1,4-benzoxazine-9-fluoro-2,3-dihydro-3-methyl-10-(4′-hydroxy-3′-ethylpiperidin-1′-yl)-7-oxo-6-carboxylic acid] | – | 5 | 5 | –
